Where no end group is shown, it is not given here.
Assays:
sheep = experiment: Haemodynamic parameters and baseline SRL after inhaled administration in sheep; assay type: in vivo; settings: inhaled increasing doses (CGRP 0.1, 0.25, 0.5 and 1.0 mg/2 ml)
Source text: (§1) Eighteen sheep with a mean weight of 35 kg (range: 24 to 52 kg) were used for this study. […] Ten of these animals were defined as non-allergic and 8 as allergic, based on the absence or presence of both early and late airway responses after a standard inhalation challenge with Ascaris suum antigen. All sheep were allowed a 4-week recovery period after the allergen challenge before experimentation began. For each of the procedures hereafter presented, the unsedated animals were restrained on a standard shopping cart in the prone position and their heads were immobilized. […]
Briefly, pleural pressure was estimated via the esophageal balloon catheter (filled with 1 ml of air), which was positioned 5 to 10 cm from the gastroesophageal junction. […] Lateral pressure in the trachea was measured with a sidehole catheter (inner diameter=2.5 mm) advanced through and positioned distal to the tip of the endotracheal tube. […] The transpulmonary pressure and flow signals were recorded on a Hewlett Packard (model 7754B, Mass. USA) multichannel recorder, which was linked to a PC 386 Personal Computer (IBM Equipment, Montreal, Quebec) for online calculation of mean RL by dividing the change in transpulmonary pressure by the change in flow at mid-tidal volume (Vt) (obtained by digital integration). […]

allergic sheep [1] = experiment: Metacholine-induced non-specific airway responsiveness in allergic sheep; assay type: in vivo; settings: inhaled 0.5 mg in 2 ml PBS
Source text: as §1
(§2) The techniques used for investigating airway mechanics were again well-validated and standardized procedures (as is usually the case with large mammals). […] Lateral pressure in the trachea was measured with a sidehole catheter (inner diameter=2.5 mm) advanced through and positioned distal to the tip of the endotracheal tube. […] The transpulmonary pressure and flow signals were recorded on a Hewlett Packard (model 7754B, Mass. USA) multichannel recorder, which was linked to a PC 386 Personal Computer (IBM Equipment, Montreal, Quebec) for online calculation of mean RL by dividing the change in transpulmonary pressure by the change in flow at mid-tidal volume (Vt) (obtained by digital integration). […]

allergic sheep [2] = experiment: Ascaris suum antigen-induced early and late increases in pulmonary resistance in sheep; assay type: in vivo
Source text: as §1, §2

allergic guinea pigs = experiment: Allergen (ovalbumin)-induced bronchospasm (PIP) in allergic guinea pigs; assay type: in vivo, guinea pig; settings: CGRP receptor antagonist given 5 minutes before the allergen challenge
Protocol: Guinea pigs were anaesthetized with xylazine (20 mg/kg, i.m.) and ketamine hydrochloride (130 mg/kg, i.m.). The jugular vein and trachea were cannulated and animals were mechanically ventilated with a constant-volume rodent respirator (Havard, model 683) delivering a tidal volume of 5.5 ml/kg at a frequency of 60 cycles/min via the tracheal cannula. Airway resistance was measured by the overflow technique according to well-validated and standardized procedures. Briefly, ventilation overflow (i.e., the pulmonary insufflation pressure or PIP), was recorded at the side arm of the tracheal cannula by means of a differential pressure transducer (Gould P23 ID) connected to a Grass polygraph (model 7D). Airway responsiveness was assessed by measuring the changes in PIP following i.v. injections of the agonists. Changes in PIP, which were taken as an index of changed airway resistance, were measured and expressed in mm of mercury (mm Hg). Each agonist was injected through the jugular vein cannula in a volume of 100 μl followed by a washout with 200 μl of heparinized-saline (100 units/ml).
The resulting increase in PIP (bronchoconstriction) was compared to responses obtained in control animals i.e. in allergic guinea pigs, which received only saline solution 5 minutes before the i.v. injection of ovalbumin. […]

CC(C)(C)NCC(O)c1ccc(O)c(CO)c1 (stereo not drawn) [salbutamol]
heart rate (sheep): increase in heart rate | mean arterial blood pressure (MAP) (sheep): hypotension | protection against metacholine-induced increase in airway resistance (allergic sheep [1]): 65% | effect on late phase bronchoconstriction to Ascaris suum antigen (allergic sheep [2]; aerosol 0.5 mg in 2 ml PBS pretreatment): does not affect | reduction of the peak of the early phase response to Ascaris suum antigen (allergic sheep [2]; aerosol 0.5 mg in 2 ml PBS, 20 minutes before antigen challenge): 45%

hCGRP(8-37) (VTHRLAGLLSRSGGVVKNNFVPTNVGSKAF; ends and bridges not checked; UniProt P06881 90-119, looked up, fragment) [a CGRP receptor antagonist]
magnitude of the allergen-induced bronchospasm versus untreated animals (allergic guinea pigs): significant increase

From patent US6743429B2 (Sherbrooke University, priority 1999, dated 2004)
